In paper PMC4624220 (Journal of medicinal chemistry, 2015):
Several values for one entry are separate records, joined by “and”; a condition that tells them apart may be missing. Identical values can stand only once. Entries after “also recorded” stand apart in the source; their conditions may differ. Like-named read-outs stand apart in the source and are kept apart here.

What was measured:
α-syn fibrils [1] = molecular target: T1, α-syn fibrils (Homo sapiens, UniProt P37840)
Aβ1-42 fibrils [2] = molecular target: T2, Aβ1-42 fibrils (Homo sapiens, UniProt P05067)
tau fibrils [3] = molecular target: T3, tau fibrils (Homo sapiens, UniProt P10636)
α-syn fibrils [4] = molecular target: T1, α-syn fibrils; experiment: biochemical
Aβ1-42 fibrils [5] = molecular target: T2, Aβ1-42 fibrils; experiment: biochemical
tau fibrils [6] = molecular target: T3, tau fibrils; experiment: biochemical
Lewy bodies = Lewy bodies (Homo sapiens, UniProt P37840); experiment: Fluorescent staining of postmortem PD/DLB midbrain tissue; settings: 5 μM compound, PD/DLB midbrain sections, fluorescence microscopy
[7] = Stability of isomers in solution measured by HPLC; assay type: physicochemical; settings: for time for isolated pure Z,E and E,E isomers to isomerize to a mixture: after HPLC separation of the isomers
Aβ plaques = Aβ plaques (Homo sapiens, UniProt P05067); experiment: Fluorescent staining of postmortem AD temporal lobe tissue; settings: 5 μM compound, AD temporal lobe sections, fluorescence microscopy
Chain of Aβ plaques (P05067 672-711 limits assumed): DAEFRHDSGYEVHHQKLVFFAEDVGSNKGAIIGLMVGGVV

T2 sequence (P05067 672-713 limits assumed): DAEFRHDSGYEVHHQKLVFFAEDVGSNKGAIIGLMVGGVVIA
T3 sequence (P10636 560-692): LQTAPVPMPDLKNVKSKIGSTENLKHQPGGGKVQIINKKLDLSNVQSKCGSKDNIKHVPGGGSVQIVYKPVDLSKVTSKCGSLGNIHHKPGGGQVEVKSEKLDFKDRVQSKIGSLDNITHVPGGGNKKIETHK

| Compound | Ki (α-syn fibrils [4]) | Ki (Aβ1-42 fibrils [5]) | Ki (tau fibrils [6]) | further results |
| --- | --- | --- | --- | --- |
| 3-(3-(4-(Dimethylamino)phenyl)allylidene)-1-(pyridin-4-ylmethyl)indolin-2-one [Compound 29] | – | – | – | Ki (α-syn fibrils [1]): 92 ± 11.2 nM; Ki (Aβ1-42 fibrils [2]): 45.9 ± 19.4 nM; Ki (tau fibrils [3]): 188 ± 68 nM |
| 3-(4-(Dimethylamino)benzylidene)-1-(pyridin-4-ylmethyl)indolin-2-one [Compound 11] | – | – | – | Ki (α-syn fibrils [1]): 150 ± 45.7 nM; Ki (Aβ1-42 fibrils [2]): 87.1 ± 34.1 nM; Ki (tau fibrils [3]): 364 ± 121 nM |
| O=C1Nc2ccccc2C1=C/C=C/c1ccccc1 [Compound 18, 3-(3-Phenylallylidene)indolin-2-one] | 206 nM and 207 nM | 267 nM | 522 nM | – |
| COc1ccc(/C=C/C=C2C(=O)Nc3ccccc32)cc1 [Compound 19, 3-(3-(4-Methoxyphenyl)allylidene)indolin-2-one] | 62 nM and 61.1 nM | 125 nM and 126 nM | 169 ± 22.3 nM | – |
| CN(C)c1ccc(/C=C/C=C2C(=O)Nc3ccccc32)cc1 [Compound 20, 3-(3-(4-(Dimethylamino)phenyl)allylidene)indolin-2-one] | 41 nM and 40.7 nM | 27 nM and 27.6 nM | 54 nM and 53.7 nM | labeling of Lewy bodies (Lewy bodies): label both Lewy bodies and Aβ plaques; also recorded: high labeling of both Lewy Bodies and Aβ plaques; time for isolated pure Z,E and E,E isomers to isomerize to a mixture [7]: ≤ 20 min; labeling of Aβ plaques (Aβ plaques): label both Lewy bodies and Aβ plaques; also recorded: high labeling of both Lewy Bodies and Aβ plaques |
| CN(C)c1ccc(/C=C/C=C2C(=O)Nc3ncccc32)cc1 [Compound 21, 3-(3-(4-(Dimethylamino)phenyl)allylidene)-1H-pyrrolo[2,3-b]pyridin-2(3H)-one] | 11.5 ± 2 nM | 15.3 ± 5.5 nM | 35.1 ± 12.3 nM | – |
| CN(C)c1ccc(/C=C/C=C2C(=O)Nc3ccc(O)cc32)cc1 [Compound 22, 3-(3-(4-(Dimethylamino)phenyl)allylidene)-5-hydroxyindolin-2-one] | 54 ± 17.9 nM | 37.1 ± 13.6 nM | 48 ± 17 nM | – |
| COc1ccc(/C=C/C=C2C(=O)N(Cc3ccccc3)c3ccccc32)cc1 [Compound 24, 1-Benzyl-3-(3-(4-methoxyphenyl)allylidene)indolin-2-one] | 72.5 ± 22.6 nM | 741 ± 255 nM | 718 ± 295 nM | – |
| CN(C)c1ccc(/C=C/C=C2C(=O)N(C)c3ccccc32)cc1 [Compound 25, 3-(3-(4-(Dimethylamino)phenyl)allylidene)-1-methylindolin-2-one] | 63.7 ± 29.6 nM | 56 ± 14.8 nM | 229 ± 121 nM | – |
| CN(C)c1ccc(/C=C/C=C2C(=O)N(Cc3ccccc3)c3ccccc32)cc1 [Compound 26, 1-Benzyl-3-(3-(4-(dimethylamino)phenyl)allylidene)indolin-2-one] | 40.9 ± 25.2 nM | 358 ± 162 nM | 374 ± 209 nM | – |
| COc1ccc(CN2C(=O)C(=C/C=C/c3ccc(N(C)C)cc3)c3ccccc32)cc1 [Compound 27, 3-(3-(4-(Dimethylamino)phenyl)allylidene)-1-(4-methoxybenzyl)indolin-2-one] | 54.6 ± 11.4 nM | 130 ± 41.4 nM | 240 ± 158 nM | time for isolated pure Z,E and E,E isomers to isomerize to a mixture [7]: ≤ 20 min |
| CN(C)c1ccc(/C=C/C=C2C(=O)N(Cc3ccc([N+](=O)[O-])cc3)c3ccccc32)cc1 [Compound 28, 3-(3-(4-(Dimethylamino)phenyl)allylidene)-1-(4-nitrobenzyl)indolin-2-one] | 4 nM and 4.2 nM | 92.4 ± 21.9 nM | 90 ± 48.8 nM | – |
| CCOC(=O)N1C(=O)C(=C/C=C/c2ccc(N(C)C)cc2)c2ccccc21 [Compound 30, Ethyl 3-(3-(4-(dimethylamino)phenyl)allylidene)-2-oxoindoline-1-carboxylate] | 45.3 ± 9 nM | 84 ± 35 nM | 263 ± 110 nM | – |
| CN(C)c1ccc(/C=C/C=C2C(=O)N(Cc3ccccc3)c3ncccc32)cc1 [Compound 31, 1-Benzyl-3-(3-(4-(dimethylamino)phenyl)allylidene)-1H-pyrrolo[2,3-b]pyridin-2(3H)-one] | 68.3 ± 31.2 nM | 85.1 ± 23 nM | 257 ± 117 nM | – |
| COc1ccc(CN2C(=O)C(=C/C=C/c3ccc(N(C)C)cc3)c3cccnc32)cc1 [Compound 32, 3-(3-(4-(Dimethylamino)phenyl)allylidene)-1-(4-methoxybenzyl)-1H-pyrrolo[2,3-b]pyridin-2(3H)-one] | 29.8 ± 6.6 nM | 107 ± 18.9 nM | 204 ± 26.7 nM | – |
| CN(C)c1ccc(/C=C/C=C2C(=O)N(Cc3ccc(N)cc3)c3ccccc32)cc1 [Compound 33, 1-(4-Aminobenzyl)-3-(3-(4-(dimethylamino)phenyl)allylidene)indolin-2-one] | 43.6 ± 20 nM | 98.9 ± 12.1 nM | 131 ± 51.5 nM | – |
| CN(C)c1ccc(/C=C/C=C2C(=O)N(c3ccccc3)c3ccccc32)cc1 [Compound 36, 3-(3-(4-(Dimethylamino)phenyl)allylidene)-1-phenylindolin-2-one] | 68.1 ± 33 nM | 287 ± 142 nM | 465 ± 94.6 nM | – |
| O=C1Nc2ccccc2/C1=C/C=C/c1ccc([N+](=O)[O-])cc1 [Compound 41a, (Z)-3-((E)-3-(4-Nitrophenyl)allylidene)indolin-2-one] | – | – | – | time stable in solution ([7]; CH2Cl2-MeOH (1:1), HPLC peak and retention time): ≥ 20 h |
| O=C1Nc2ccccc2/C1=C\C=C\c1ccc([N+](=O)[O-])cc1 [Compound 41b, (E)-3-((E)-3-(4-Nitrophenyl)allylidene)indolin-2-one] | – | – | – | isomerization to an un-identified isomer ([7]; CH2Cl2-MeOH (1:1), 20 h, HPLC): 33% |
| Nc1ccc(/C=C/C=C2C(=O)Nc3ccccc32)cc1 [Compound 47, 3-(3-(4-Aminophenyl)allylidene)indolin-2-one] | 44.8 ± 15.6 nM | 50.8 ± 18.5 nM | 38.3 ± 28.7 nM | – |
